Each structure is given as a SMILES string. Structures can show the parent of a compound that is named as a salt.

T1 sequence (Q13946 whole entry): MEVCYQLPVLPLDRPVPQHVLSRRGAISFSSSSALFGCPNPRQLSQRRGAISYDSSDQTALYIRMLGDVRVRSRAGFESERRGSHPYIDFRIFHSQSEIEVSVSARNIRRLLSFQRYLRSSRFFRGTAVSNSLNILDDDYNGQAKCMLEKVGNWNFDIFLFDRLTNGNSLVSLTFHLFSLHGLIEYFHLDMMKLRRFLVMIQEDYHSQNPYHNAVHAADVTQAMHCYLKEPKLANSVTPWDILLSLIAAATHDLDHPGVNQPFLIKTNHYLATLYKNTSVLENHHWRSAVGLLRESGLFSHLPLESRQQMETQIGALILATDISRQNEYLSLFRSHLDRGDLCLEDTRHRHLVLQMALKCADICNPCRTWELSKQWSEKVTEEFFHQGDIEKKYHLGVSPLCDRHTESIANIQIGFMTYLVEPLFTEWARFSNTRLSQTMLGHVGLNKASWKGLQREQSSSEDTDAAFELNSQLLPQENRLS

This experiment addresses T1, PDE7 (type VII phosphodiesterase) (Homo sapiens, UniProt Q13946).
T1 construct: endogenous in cells; host or cells: MOLT-4 (ATCC CRL-1582), soluble fraction, HiTrapQ anion-exchange fraction
Briefly: PDE7 inhibiting activity (3H-cAMP hydrolysis, active fraction from MOLT-4 cells). Format: biochemical. The settings on record: PDE7 fraction from MOLT-4 cells, 0.064 μM cAMP, 10 μM rolipram present, 2 hours at 25° C.; read-out: IC50 values for phosphodiesterase inhibiting activities (PDE7). In a few lines: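 PDE7 from MOLT-4 cell soluble fraction, HiTrapQ NaCl-gradient purified. Compounds reacted 2 h at 25° C in 20 mM tris-HCl pH 7.5, 1 mM MgCl2, 0.1 μCi 3H-cAMP (0.064 μM cAMP), 10 μM rolipram, 5′-nucleotidase; QAE-Sephadex-separated supernatant counted.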
With `CNCCNS(=O)(=O)c1ccc(-c2nc3c(C)nn(C4CCCCC4)c3c(=O)[nH]2)c(OC)c1` [Example 210-2, 4-(1-Cyclohexyl-3-methyl-7-oxo-6,7-dihydro-1H-pyrazolo[4,3-d]pyrimidin-5-yl)-3-methoxy-N-[2-(methylamino)ethyl]benzenesulfonamide], the IC50 (as a rule, the midpoint of a concentration-inhibition curve) was not above 1000 nM.

In the case of `COc1cc(S(=O)(=O)NCCN(C)C)ccc1-c1nc2c(C)nn(C3CCCCC3)c2c(=O)[nH]1` [Example 211, 4-(1-Cyclohexyl-3-methyl-7-oxo-6,7-dihydro-1H-pyrazolo[4,3-d]pyrimidin-5-yl)-N-[2-(dimethylamino)ethyl]-3-methoxybenzenesulfonamide], the IC50 is not above 1000 nM.

On to `CNCCN(C)S(=O)(=O)c1ccc(-c2nc3c(C)nn(C4CCCCC4)c3c(=O)[nH]2)c(OC)c1` [Example 212, 4-(1-Cyclohexyl-3-methyl-7-oxo-6,7-dihydro-1H-pyrazolo[4,3-d]pyrimidin-5-yl)-3-methoxy-N-methyl-N-[2-(methylamino)ethyl]benzenesulfonamide], for which the IC50 is not above 1000 nM.

On to `COc1cc(S(=O)(=O)N(C)CCO)ccc1-c1nc2c(C)nn(C3CCCCC3)c2c(=O)[nH]1` [Example 213, 4-(1-Cyclohexyl-3-methyl-7-oxo-6,7-dihydro-1H-pyrazolo[4,3-d]pyrimidin-5-yl)-N-(2-hydroxyethyl)-3-methoxy-N-methylbenzenesulfonamide], for which the concentration for half-maximal inhibition (IC50) is not above 1000 nM.

For `COc1cc(S(=O)(=O)N2CCN(C)CC2)ccc1-c1nc2c(C)nn(C3CCCCC3)c2c(=O)[nH]1` [Example 214, 1-Cyclohexyl-5-{2-methoxy-4-[(4-methyl-1-piperazinyl)sulfonyl]phenyl}-3-methyl-1,6-dihydro-7H-pyrazolo[4,3-d]pyrimidin-7-one], the 50% inhibitory concentration (IC50) is not above 1000 nM.

On to `CNCCCN(C)S(=O)(=O)c1ccc(-c2nc3c(C)nn(C4CCCCC4)c3c(=O)[nH]2)c(OC)c1` [Example 215, 4-(1-Cyclohexyl-3-methyl-7-oxo-6,7-dihydro-1H-pyrazolo[4,3-d]pyrimidin-5-yl)-3-methoxy-N-methyl-N-[3-(methylamino)propyl]benzenesulfonamide], for which the IC50 was not above 1000 nM.

On to `COc1cc(S(=O)(=O)N2CCN(CCO)CC2)ccc1-c1nc2c(C)nn(C3CCCCC3)c2c(=O)[nH]1` [Example 216, 1-Cyclohexyl-5-(4-{[4-(2-hydroxyethyl)-1-piperazinyl]sulfonyl}-2-methoxyphenyl)-3-methyl-1,6-dihydro-7H-pyrazolo[4,3-d]pyrimidin-7-one], for which the IC50 was not above 1000 nM.

`COc1cc(S(=O)(=O)N2CCNCC2)ccc1-c1nc2c(C)nn(C3CCCCC3)c2c(=O)[nH]1` [Example 217, 1-Cyclohexyl-5-[2-methoxy-4-(1-piperazinylsulfonyl)phenyl]-3-methyl-1,6-dihydro-7H-pyrazolo[4,3-d]pyrimidin-7-one]: the concentration for half-maximal inhibition (IC50) was not above 1000 nM.

Consider `CCN1CCN(S(=O)(=O)c2ccc(-c3nc4c(C)nn(C5CCCCC5)c4c(=O)[nH]3)c(OC)c2)CC1` [Example 218, 1-Cyclohexyl-5-{4-[(4-ethyl-1-piperazinyl)sulfonyl]-2-methoxyphenyl}-3-methyl-1,6-dihydro-7H-pyrazolo[4,3-d]pyrimidin-7-one], for which the IC50 is not above 1000 nM.

As to `COc1cc(S(=O)(=O)NC2CCNCC2)ccc1-c1nc2c(C)nn(C3CCCCC3)c2c(=O)[nH]1` [Example 220, 4-(1-Cyclohexyl-3-methyl-7-oxo-6,7-dihydro-1H-pyrazolo[4,3-d]pyrimidin-5-yl)-3-methoxy-N-(4-piperidinyl)benzenesulfonamide monohydrochloride], the IC50 was not above 1000 nM.

Consider `CNC1CCN(S(=O)(=O)c2ccc(-c3nc4c(C)nn(C5CCCCC5)c4c(=O)[nH]3)c(OC)c2)CC1` [Example 222, 1-Cyclohexyl-5-(2-methoxy-4-{[4-(methylamino)-1-piperidinyl]sulfonyl}phenyl)-3-methyl-1,6-dihydro-7H-pyrazolo[4,3-d]pyrimidin-7-one], for which the 50% inhibitory concentration (IC50) is not above 1000 nM.

For the compound `COc1cc(NC2CCNCC2)ccc1-c1nc2c(C)nn(C3CCCCC3)c2c(=O)[nH]1` [Example 224, 1-Cyclohexyl-5-[2-methoxy-4-(4-piperidinylamino)phenyl]-3-methyl-1,6-dihydro-7H-pyrazolo[4,3-d]pyrimidin-7-one], the half-inhibitory concentration (IC50) is not above 10 nM.

On to `COCCNc1ccc(-c2nc3c(C)nn(C4CCCCC4)c3c(=O)[nH]2)c(OC)c1` [Example 225, 1-Cyclohexyl-5-{2-methoxy-4-[(2-methoxyethyl)amino]phenyl}-3-methyl-1,6-dihydro-7H-pyrazolo[4,3-d]pyrimidin-7-one], for which the IC50 is not above 10 nM.

Turning to `COc1cc(/C=C/C(=O)O)ccc1-c1nc2c(C)nn(C3CCCCC3)c2c(=O)[nH]1` [Example 227, (2E)-3-[4-(1-cyclohexyl-3-methyl-7-oxo-6,7-dihydro-1H-pyrazolo[4,3-d]pyrimidin-5-yl)-3-methoxyphenyl]-2-propenic acid], the IC50 is not above 10 nM.

In the case of `COc1cc(CCC(=O)O)ccc1-c1nc2c(C)nn(C3CCCCC3)c2c(=O)[nH]1` [Example 229, 3-[4-(1-Cyclohexyl-3-methyl-7-oxo-6,7-dihydro-1H-pyrazolo[4,3-d]pyrimidin-5-yl)-3-methoxyphenyl]propanic acid], the IC50 is not above 1000 nM.

For the compound `COc1cc(NCCN(C)C)ccc1-c1nc2c(C)nn(C3CCCCC3)c2c(=O)[nH]1` [Example 230, 1-Cyclohexyl-5-(4-{[2-(dimethylamino)ethyl]amino}-2-methoxyphenyl)-3-methyl-1,6-dihydro-7H-pyrazolo[4,3-d]pyrimidin-7-one], the IC50 is not above 10 nM.

In the case of `COc1cc(NC2CCN(C(C)=O)CC2)ccc1-c1nc2c(C)nn(C3CCCCC3)c2c(=O)[nH]1` [Example 231, 5-{4-[(1-Acetyl-4-piperidinyl)amino]-2-methoxyphenyl}-1-cyclohexyl-3-methyl-1,6-dihydro-7H-pyrazolo[4,3-d]pyrimidin-7-one], the IC50 is not above 1000 nM.

Turning to `COc1cc(NC2CCN(C)CC2)ccc1-c1nc2c(C)nn(C3CCCCC3)c2c(=O)[nH]1` [Example 232, 1-Cyclohexyl-5-{2-methoxy-4-[(1-methyl-4-piperidinyl)amino]phenyl}-3-methyl-1,6-dihydro-7H-pyrazolo[4,3-d]pyrimidin-7-one], the half-maximal inhibitory concentration (IC50) is not above 10 nM.

As to `COc1cc(CN2CCN(C)CC2)ccc1-c1nc2c(C)nn(C3CCCCC3)c2c(=O)[nH]1` [Example 234, 1-Cyclohexyl-5-{2-methoxy-4-[(4-methyl-1-piperazinyl)methyl]phenyl}-3-methyl-1,6-dihydro-7H-pyrazolo[4,3-d]pyrimidin-7-one], the IC50 is not above 1000 nM.

`COc1cc(CN2CCOCC2)ccc1-c1nc2c(C)nn(C3CCCCC3)c2c(=O)[nH]1` [Example 235, 1-Cyclohexyl-5-[2-methoxy-4-(4-morpholinylmethyl)phenyl]-3-methyl-1,6-dihydro-7H-pyrazolo[4,3-d]pyrimidin-7-one]: the IC50 was not above 1000 nM.

Turning to `COc1cc(CN2CCC(O)CC2)ccc1-c1nc2c(C)nn(C3CCCCC3)c2c(=O)[nH]1` [Example 236, 1-Cyclohexyl-5-{4-[(4-hydroxy-1-piperidinyl)methyl]-2-methoxyphenyl}-3-methyl-1,6-dihydro-7H-pyrazolo[4,3-d]pyrimidin-7-one], the IC50 was not above 1000 nM.

Take `COCCNCc1ccc(-c2nc3c(C)nn(C4CCCCC4)c3c(=O)[nH]2)c(OC)c1` [Example 237, 1-Cyclohexyl-5-(2-methoxy-4-{[(2-methoxyethyl)amino]methyl}phenyl)-3-methyl-1,6-dihydro-7H-pyrazolo[4,3-d]pyrimidin-7-one]: the 50% inhibitory concentration (IC50) is not above 1000 nM.

Regarding `COc1cc(CN2CCC(C(=O)O)CC2)ccc1-c1nc2c(C)nn(C3CCCCC3)c2c(=O)[nH]1` [Example 239, 1-[4-(1-Cyclohexyl-3-methyl-7-oxo-6,7-dihydro-1H-pyrazolo[4,3-d]pyrimidin-5-yl)-3-methoxybenzyl]-4-piperidinecarboxylic acid], the half-maximal inhibitory concentration (IC50) is not above 1000 nM.

On to `CNC1CCN(Cc2ccc(-c3nc4c(C)nn(C5CCCCC5)c4c(=O)[nH]3)c(OC)c2)CC1` [Example 241, 1-Cyclohexyl-5-(2-methoxy-4-{[4-(methylamino)-1-piperidinyl]methyl}phenyl)-3-methyl-1,6-dihydro-7H-pyrazolo[4,3-d]pyrimidin-7-one], for which the half-inhibitory concentration (IC50) was not above 1000 nM.

In the case of `COc1cc(NC2CCOCC2)ccc1-c1nc2c(C)nn(C3CCCCC3)c2c(=O)[nH]1` [Example 242, 1-Cyclohexyl-5-[2-methoxy-4-(tetrahydro-2H-pyran-4-ylamino)phenyl]-3-methyl-1,6-dihydro-7H-pyrazolo[4,3-d]pyrimidin-7-one], the IC50 was not above 1000 nM.

In the case of `COc1cc(N2CCC(N(C)C)CC2)ccc1-c1nc2c(C)nn(C3CCCCC3)c2c(=O)[nH]1` [Example 245, 1-Cyclohexyl-5-{4-[4-(dimethylamino)-1-piperidinyl]-2-methoxyphenyl}-3-methyl-1,6-dihydro-7H-pyrazolo[4,3-d]pyrimidin-7-one], the IC50 was not above 1000 nM.

For `COc1cc(N2CCC(N)CC2)ccc1-c1nc2c(C)nn(C3CCCCC3)c2c(=O)[nH]1` [Example 247, 5-[4-(4-Amino-1-piperidinyl)-2-methoxyphenyl]-1-cyclohexyl-3-methyl-1,6-dihydro-7H-pyrazolo[4,3-d]pyrimidin-7-one], the IC50 is not above 1000 nM.

Consider `CCOc1cc(N2CCC(N(C)C)CC2)ccc1-c1nc2c(C)nn(C3CCCCC3)c2c(=O)[nH]1` [Example 250, 1-Cyclohexyl-5-{4-[4-(dimethylamino)-1-piperidinyl]-2-ethoxyphenyl}-3-methyl-1,6-dihydro-7H-pyrazolo[4,3-d]pyrimidin-7-one], for which the 50% inhibitory concentration (IC50) is not above 10 nM.

In the case of `CCNC1CCN(c2ccc(-c3nc4c(C)nn(C5CCCCC5)c4c(=O)[nH]3)c(OCC)c2)CC1` [Example 253, 1-Cyclohexyl-5-{2-ethoxy-4-[4-(ethylamino)-1-piperidinyl]phenyl}-3-methyl-1,6-dihydro-7H-pyrazolo[4,3-d]pyrimidin-7-one], the IC50 is not above 1000 nM.

The values above are taken from patent US7268128B2, “1,3,5-trisubstituted-5-phenyl and 5-pyridyl pyrazolopyrimidinone derivatives having PDE7 inhibiting action” (Ausbio Pharma Co., Ltd., priority 2001, dated 2007).
